Test results: patent US20220017541A1, “INHIBITORS OF ARGINASE” (Black Belt Tx Ltd, priority 2018, published 2022)

Assay: Plasma concentration after single IV or PO dose in mice (LC/MS/MS)
Assay type: in vivo
Parameters: Plasma concentration PO @ t = 30 min: dose or concentration left out as unconfirmed
Settings: 30 min after dosing
Protocol: Compounds were formulated at 0.4 and 1 mg/ml in a vehicle containing Poly-Ethylene Glycol 400 (PEG400; Cat. No. #91893, Sigma Aldrich) as dosing solutions for intravenous and oral administration, respectively. Male C57BL6 mice, approximately 8-10 weeks old (22-25 grams), were obtained from the vivarium Fundación Ciencia & Vida Chile (Santiago, Chile) and maintained in a temperature-controlled room with 12/12 hr light/dark schedule with food and water ad libitum. Animals were acclimated for a minimum period of 4 days upon arrival at the testing facility.
At the day of study, mice were weighed, identified by marking the tail with numbers using a non-toxic permanent marker and designated into the experimental groups (n=3 per group). Each mouse of IV dosing groups received the systemic administration of 2 mg/kg dosing solution via caudal vein. […] No.: FTP-2038; Instech Salomon Inc.).
Blood samples were harvested by terminal cardiac puncture at 30 min after dosing. Non-dosed mice were used to collect samples of zero time points. Whole blood was collected into microtainer tubes with (K2) EDTA (Cat. No.: 365974, Becton Dickinson & Co.). Blood samples were centrifuged immediately at 9,000 g at 4° C. for 5 min and then plasmas were separated. Plasma samples were placed into individually labeled cryovials and stored in a −80° C. freezer until LC/MS/MS bioanalysis.
The bioanalysis of plasma samples to determine concentrations of exemplary compounds of the invention was conducted with a QTRAP 4500 triple quadrupole mass spectrometer (Applied Biosystems SCIEX) in the positive ion mode and interfaced with an ekspert ultraLC 100-XL UPLC System (eksigent). Calibration standards (0.01 to 100 μM) and QCs (0.2, 2.0 and 20 μM) were prepared from naïve mouse plasma in parallel with mouse plasma study samples (60 μl) by precipitation with three volumes of ice cold internal standard solution (acetonitrile containing 20 μM of theophylline). The precipitated samples were centrifuged at 6,100 g for 30 min at 4° C. Following centrifugation, an aliquot of each supernatant was transferred into a clean sample vial and diluted with two volumes of aqueous mobile phase (0.2% formic acid in water). Samples were injected onto a reverse phase analytical column (YMC Triart C18; 2.0×50 mm; 1.9 μm; YMC CO) and eluted with a gradient of 0.1 or 0.2% formic acid in Acetonitrile. Test compound and internal standard were monitored by a multiple reaction monitoring (MRM) experiment using an Analyst software (v 1.6.2, Applied Biosystems SCIEX). Quantitation was conducted using a MultiQuant software (v 2.1, Applied Biosystems SCIEX) and the resulting calibration curve was fitted with a linear or quadratic regression and 1/× weighting. The lower limit of quantitation were between 0.01-0.03 μM.
IV and PO PK parameters were calculated from the concentration-time data using Phoenix WinNonlin software (v 6.4, Certara, Princeton, N.J.) by noncompartmental analysis in the sparse sampling mode.

SMILES | Plasma concentration PO @ t = 30 min | Plasma concentration 2 mg/Kg IV @ t = 30 min
NC(CCCCB(O)O)(C(=O)O)C1CCN(C2CCc3ccccc32)CC1 (single isomer, unassigned) [Compound 2, 2-amino-6-borono-2-(1-(2,3-dihydro-1H-inden-1-yl)piperidin-4-yl)hexanoic acid] | + (plasma concentration < 500 nM) | 
CC(c1ccccc1)N1CCC(C(N)(CCCCB(O)O)C(=O)O)CC1 (single isomer, unassigned) [Compound 10, 2-amino-6-borono-2-(1-(1-phenylethyl)piperidin-4-yl)hexanoic acid] | + (plasma concentration < 500 nM) | + (plasma concentration < 500 nM)
NC(CCCCB(O)O)(C(=O)O)C1CCN(C2CCCc3ccc(F)cc32)CC1 (single isomer, unassigned) [Compound 83, 2-amino-6-borono-2-(1-(7-fluoro-1,2,3,4-tetrahydronaphthalen-1-yl)piperidin-4-yl)hexanoic acid] | + (plasma concentration < 500 nM) | 
NC(CCCCB(O)O)(C(=O)O)C1CCN(C2CCCc3ccccc32)CC1 (single isomer, unassigned) [Compound 5, 2-amino-6-borono-2-(1-(1,2,3,4-tetrahydronaphthalen-1-yl)piperidin-4-yl)hexanoic acid] | + (plasma concentration < 500 nM) | ++ (plasma concentration > 1000 nM for test compound)
